Experimental data published in patent US20260008746A1, “CATIONIC LIPID COMPOUND WITH HIGH EFFICIENCY, LOW TOXICITY AND STABLE EXPRESSION, AND COMPOSITION COMPRISNG SAME” (HANGZHOU TIANLONG PHARMACEUTICAL CO., LTD, priority 2023, published 2026).

Key:
293T cells [1] = test: Fluorescent detection of Fluc-mRNA (cell transfection efficiency of LNP formulations); type: cell-based; details: for Relative light unit (RLU): LNP formulation containing 0.3 μg Fluc-mRNA, 96-well plate, 24 hours; for Multiples (YK-101): RLU of YK-101 / RLU of named substance; for Multiples (YK-107): RLU of YK-107 / RLU of named substance; for Multiples (YK-108): RLU of YK-108 / RLU of named substance; for Ratio relative to SM-102: RLU of named substance / RLU of SM-102; for difference from SM-102 in Fluc-mRNA fluorescence (GraphPad Prism analysis): statistical comparison with SM-102
Summary of the method: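 293T cells seeded at 10,000 per well, cultured overnight, then given LNP carrying 0.3 μg Fluc-mRNA (cationic:neutral:structured:PEG-lipid 49:10:39.5:1.5 molar). Incubated 24 h. Luciferase signal read with kit reagent on an IVIS imaging system.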

293T cells [2] = test: Cell survival rate determination (CCK-8); type: cell-based; details: for Cell survival rate (%): LNP formulation containing 1.5 μg Fluc-mRNA, 24 hours, CCK-8, absorbance at 450 nm; for cell survival rate lower than that of YK-101: cell survival rate of YK-101 minus that of named substance; for cell survival rate lower than that of YK-107: cell survival rate of YK-107 minus that of named substance; for cell survival rate lower than that of YK-108: cell survival rate of YK-108 minus that of named substance
Summary of the method: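 293T cells were seeded overnight at 10,000 cells/well in 96-well plates, then exposed for 24 h to LNP containing 1.5 μg Fluc-mRNA (cationic:neutral:structural:polymer-conjugated lipid, 49:10:39.5:1.5 molar) or to Lipofectamine 3000. Viability was read by CCK-8, 1 h incubation, absorbance 450 nm.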

BALB/C mice = test: In vivo imaging of Fluc-mRNA expression in mice delivered by LNP formulations; details: for average radiation intensity, 6 h / average radiation intensity, 24 h / average radiation intensity, 48 h / average radiation intensity, 7 d: LNP containing 10 pg Fluc-mRNA, intramuscular, female BALB/C mice
Method: The LNP formulation containing […] Fluc-mRNA was injected intramuscularly into female BALB/C mice aged 4-6 weeks old and weighed 17-19 g, and the mice were intraperitoneally injected with fluorescent imaging substrate at specific time points after administration (6h, 24 h, 48h and 7d), where the mice were allowed to move freely for 5 minutes, and then the average radiation intensity (corresponding to fluorescence expression intensity) of the protein expression of the mRNA carried by the LNP in the mice was detected by the IVIS Spectrum small animal in vivo imaging device. The test results are shown in Tables 11 to 14 and FIGS. 12 to 14.

[3] = Determination of particle size and polydispersity index (PDI) of lipid nanoparticles by dynamic light scattering; type: physicochemical; details: LNP formulation of named cationic lipid/DSPC/cholesterol/DMG-PEG2000 49:10:39.5:1.5; for Particle size (nm): 90° scattering angle, 25° C
Method: The cationic lipids listed in Table 1 were dissolved in ethanol with DSPC (AVT (Shanghai) Pharmaceutical Technology Co., Ltd.), cholesterol (AVT (Shanghai) Pharmaceutical Technology Co., Ltd.) and DMG-PEG2000 according to a molar ratio of 49:10:39.5:1.5, respectively, to prepare lipid solution in ethanol. The lipid solution in ethanol was quickly added to citrate buffer (pH=4 to 5) by ethanol injection method, and vortexed for 30 s for later use. eGFP-mRNA (from Shanghai Biohub International Trade Co., Ltd) or Fluc-mRNA (from Shanghai Biohub International Trade Co., Ltd) was diluted in citrate buffer (pH=4 to 5) to give an aqueous mRNA solution. A certain volume of liposome solution and mRNA aqueous solution were used to prepare liposomes at a weight ratio of total lipids to mRNA of 15:1. The mixtures were sonicated at 25° C. for 15 min (with an ultrasonic frequency of 40 kHz and an ultrasonic power of 800 W). The resulting liposomes were diluted to 10 times volume with PBS, and then ultrafiltered with a 300 KDa ultrafiltration tube to remove ethanol. Then the volume was fixed to a certain volume with PBS to give an LNP formulation encapsulating eGFP-mRNA or Fluc-mRNA using cationic lipid/DSPC/cholesterol/DMG-PEG2000 (49:10:39.5:1.5 in molar percentage).
The particle size and polydispersity index (PDI) were determined by dynamic light scattering using Malvern laser particle size analyzer.
10 μL of the liposome solution was weighed, diluted to 1 mL with RNase-free deionized water, and added to the sample pool. Each sample was measured in triplicate. The measurement conditions were: 90° scattering angle, and 25° C.

[4] = highest multiple, time point not stated

Structure (SMILES) | Relative light unit (RLU) (293T cells [1]) | Ratio relative to SM-102 (293T cells [1]) | Cell survival rate (%) (293T cells [2]) | cell survival rate lower than that of YK-101 (293T cells [2]) [%] | cell survival rate lower than that of YK-107 (293T cells [2]) [%] | cell survival rate lower than that of YK-108 (293T cells [2]) [%] | average radiation intensity of YK-101, times that of named substance (BALB/C mice; 6 h) [times] | average radiation intensity of YK-107, times that of named substance (BALB/C mice; 6 h) [times] | average radiation intensity of YK-108, times that of named substance (BALB/C mice; 6 h) [times] | average radiation intensity of YK-101, times that of named substance (BALB/C mice; 24 h) [times] | average radiation intensity of YK-107, times that of named substance (BALB/C mice; 24 h) [times] | average radiation intensity of YK-108, times that of named substance (BALB/C mice; 24 h) [times] | average radiation intensity of YK-101, times that of named substance (BALB/C mice; 48 h) [times] | average radiation intensity of YK-107, times that of named substance (BALB/C mice; 48 h) [times] | average radiation intensity of YK-108, times that of named substance (BALB/C mice; 48 h) [times] | average radiation intensity of YK-101, times that of named substance (BALB/C mice; 7 d) [times] | average radiation intensity of YK-107, times that of named substance (BALB/C mice; 7 d) [times] | average radiation intensity of YK-108, times that of named substance (BALB/C mice; 7 d) [times] | average radiation intensity, 6 h (BALB/C mice; 6 h) | average radiation intensity, 24 h (BALB/C mice; 24 h) | also measured
CCCCCCCCC(CCCCCC)C(=O)OCCCCCCN(CCCCO)CCCCCCOC(=O)C(CCCCCC)CCCCCCCC (stereo not shown) [ALC-0315, reference compound] | 2056890 | 1.34 | 51.02 | 39.10 | 39.43 | 38.84 | 1.8 | 1.9 | 2.4 | 5.9 | 7.2 | 7.8 | 4.8 | 5.8 | 5.9 | 1.8 | 2.0 | 2.1 | 830590 | 179680 | Multiples (YK-101) (293T cells [1]): 9.89; Multiples (YK-107) (293T cells [1]): 10.87; Multiples (YK-108) (293T cells [1]): 11.99; average radiation intensity, 48 h (BALB/C mice; 48 h): 39015; average radiation intensity, 7 d (BALB/C mice; 7 d): 6643; PDI(%) [3]: 15.0%; Particle size (nm) [3]: 209 nm
CCCCCCCCCC(=O)OCCCCN(CCO)CCCCCC(=O)OCCC(CCCCCC)CCCCCC [YK-109] | 717431 | 0.47 | 69.45 | 20.67 | 21.00 | 20.41 | 2.4 | 2.6 | 3.2 | 11.2 | 13.8 | 14.8 | 10.1 | 12.2 | 12.5 | 2.5 | 2.7 | 2.9 | 625040 | 94720 | difference from SM-102 in Fluc-mRNA fluorescence (GraphPad Prism analysis) (293T cells [1]): no significant difference; average radiation intensity, 48 h (BALB/C mice; 48 h): 18496; average radiation intensity, 7 d (BALB/C mice; 7 d): 4948; expression amount of mRNA in mice of YK-101, times that of named substance (BALB/C mice; [4]): up to 11 times; expression amount of mRNA in mice of YK-107, times that of named substance (BALB/C mice; [4]): ≤ 13 times; PDI(%) [3]: 28.2%; Particle size (nm) [3]: 205 nm
CCCCCCCCC(CCCCCCCC)OC(=O)CCCCCCCN(CCO)CCCCCCCC(=O)OCCC(CCCCCC)CCCCCC [Compound 21, 9-heptadecyl 8-(8-((3-hexylnonyl)oxy)-8-oxoctyl)-((2-hydroxyethyl)amino)octoate, reference compound] | 1389141 | 0.91 | 68.53 | 21.59 | 21.92 | 21.33 | 2.5 | 2.6 | 3.3 | 9.6 | 11.8 | 12.8 | 6.0 | 7.3 | 7.4 | 2.0 | 2.2 | 2.4 | 606680 | 110210 | Multiples (YK-101) (293T cells [1]): 14.64; Multiples (YK-107) (293T cells [1]): 16.10; Multiples (YK-108) (293T cells [1]): 17.75; average radiation intensity, 48 h (BALB/C mice; 48 h): 31062; average radiation intensity, 7 d (BALB/C mice; 7 d): 6024; PDI(%) [3]: 12.5%; Particle size (nm) [3]: 151 nm
CCCCCCCCCCOC(=O)CCCN(CCCCCC(=O)OCCC(CCCCCC)CCCCCC)CCOCCO [YK-123, 3-hexylnonyl 6-(4-(decyloxy)-4-oxobutyl)(2-(2-hydroxyethoxy-ethyl)amino)hexanoate] | 807703 | 0.53 | 76.68 | 13.44 | 13.77 | 13.18 | 4.7 | 5.0 | 6.4 | 18.0 | 22.2 | 23.9 | 19.9 | 24.2 | 24.7 | 8.6 | 9.4 | 10.0 | 317640 | 58728 | cell transfection efficiency, times that of YK-124 (293T cells [1]): 10 times; Multiples (YK-107) (293T cells [1]): 27.68; fluorescence absorption value, times that of HHMA (293T cells [1]; RLU of named substance / RLU of HHMA): 0.39 times; fluorescence absorption value, times that of Lipofectamine 3000 (293T cells [1]; RLU of named substance / RLU of Lipofectamine 3000): 0.75 times; Fluc-mRNA expression signal intensity, times that of compound 21 (293T cells [1]; RLU of named substance / RLU of compound 21): 0.58 times; fluorescence absorption value, times that of compound 23 (293T cells [1]; RLU of named substance / RLU of compound 23): 0.63 times; difference from SM-102 in Fluc-mRNA fluorescence (GraphPad Prism analysis) (293T cells [1]): no significant difference; average radiation intensity, 48 h (BALB/C mice; 48 h): 9336; average radiation intensity, 7 d (BALB/C mice; 7 d): 1414; PDI(%) [3]: 15.4%; Particle size (nm) [3]: 246 nm
